This passage reports IC50 results from US20250171459A1, “2-METHYL-4',5'-DIHYDROSPIRO[PIPERIDINE-4,7'-THIENO[2,3-C]PYRAN] DERIVATIVES AS INHIBITORS OF APOL1 AND METHODS OF USING SAME” (Vertex Pharmaceuticals Incorporated, priority 2022, published 2025).

The target in this assay is T1, APOL1 (Homo sapiens, UniProt O14791).
T1 sequence (O14791 1-398 S342G/I384M): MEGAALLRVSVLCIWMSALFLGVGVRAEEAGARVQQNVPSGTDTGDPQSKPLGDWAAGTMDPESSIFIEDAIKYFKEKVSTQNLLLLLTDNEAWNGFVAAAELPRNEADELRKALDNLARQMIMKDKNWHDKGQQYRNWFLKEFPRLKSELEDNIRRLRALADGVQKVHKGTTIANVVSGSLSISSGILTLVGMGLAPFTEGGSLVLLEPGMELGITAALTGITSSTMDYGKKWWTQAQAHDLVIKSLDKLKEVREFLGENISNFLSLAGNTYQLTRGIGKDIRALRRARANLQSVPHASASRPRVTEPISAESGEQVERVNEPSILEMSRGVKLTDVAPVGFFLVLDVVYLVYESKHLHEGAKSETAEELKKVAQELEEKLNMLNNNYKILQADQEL
Nature of the assay: MultiTox-Fluor Multiplex Cytotoxicity Assay in tet-inducible APOL1 T-REx-HEK293 cells (cell rescue, ratio of dead to live cells). It is filed as cell-based. As to conditions: tet-inducible transgenic APOL1 T-REx-HEK293 cell lines, 50 ng/mL tet, 24 hours; read-out: IP50 (i.e., IC50 for cell proliferation). The essentials:
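T-REx-HEK293 cells with tet-inducible APOL1 were treated with compound (10 μM top, 10-point 3-fold dilution, duplicate) plus 50 ng/mL tetracycline for 24 h at 37° C, in DMEM with 2% tet-free FBS. MultiTox-Fluor protease signals gave a dead/live ratio, normalized to no tet (100% viability) and tet alone (0%).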

With `CCCc1cc2c(s1)CCO[C@@]21CCN(Cc2cn(CCS(C)(=O)=O)nn2)[C@@H](C)C1` [Compound 513], the IC50 fell in the range of 100 to 500 nM.

For the compound `CC(C)Cc1cc2c(s1)CCO[C@@]21CCN(Cc2cn(CCS(C)(=O)=O)nn2)[C@@H](C)C1` [Compound 514], the IC50 fell in the range of 100 to 500 nM.

Turning to `C[C@H]1C[C@@]2(CCN1Cc1cnc(NC(C)(C)CO)nc1)OCCc1sc(Cl)cc12` [Compound 515, 2-[[5-[[(2′S,4R)-2-chloro-2′-methyl-spiro[6,7-dihydrothieno[3,2-c]pyran-4,4′-piperidine]-1′-yl]methyl]pyrimidin-2-yl]amino]-2-methyl-propan-1-ol], the IC50 was less than 100 nM. As for `Cc1cc2c(s1)CCO[C@]21CCN(Cc2cnn(CCS(C)(=O)=O)c2)[C@@H](C)C1` [Compound 516, (2′S,4S)-2,2′-dimethyl-1′-[[1-(2-methylsulfonylethyl)pyrazol-4-yl]methyl]spiro[6,7-dihydrothieno[3,2-c]pyran-4,4′-piperidine]], the figure is less than 100 nM; as for `Cc1cc2c(s1)CCO[C@@]21CCN(Cc2cnn(CCS(C)(=O)=O)c2)[C@H](C)C1` [Compound 517], 100 to 500 nM. As for `C[C@H]1C[C@@]2(CCN1Cc1cnn(CCS(C)(=O)=O)c1)OCCc1sc(Cl)cc12` [Compound 518], the figure is less than 100 nM. As to `Cc1sc2c(c1C)[C@]1(CCN(Cc3cnn(C)c3)[C@@H](C)C1)OCC2` [Compound 519, (2′S,4R)-2,2′,3-trimethyl-1′-[(1-methylpyrazol-4-yl)methyl]spiro[6,7-dihydrothieno[3,2-c]pyran-4,4′-piperidine]], the IC50 was less than 100 nM. As for `CCCc1cc2c(s1)CCO[C@@]21CCN(Cc2cnn(C)c2)[C@@H](C)C1` [Compound 520], the figure is less than 100 nM; as for `CC(C)Cc1cc2c(s1)CCO[C@@]21CCN(Cc2cnn(C)c2)[C@@H](C)C1` [Compound 521], less than 100 nM; as for `C[C@H]1C[C@@]2(CCN1Cc1cn(CCS(C)(=O)=O)nn1)OCCc1sc(Br)cc12` [Compound 522, (2′S,4R)-2-bromo-2′-methyl-1′-[[1-(2-methylsulfonylethyl)triazol-4-yl]methyl]spiro[6,7-dihydrothieno[3,2-c]pyran-4,4′-piperidine]], less than 100 nM. As for `C[C@H]1C[C@@]2(CCN1Cc1cnn(CCS(C)(=O)=O)c1)OCCc1sc(CC(F)F)cc12` [Compound 523, (2′S,4R)-2-(2,2-difluoroethyl)-2′-methyl-1′-[[1-(2-methylsulfonylethyl)pyrazol-4-yl]methyl]spiro[6,7-dihydrothieno[3,2-c]pyran-4,4′-piperidine]], the figure is less than 100 nM; as for `C[C@H]1C[C@@]2(CCN1Cc1cn(CCS(C)(=O)=O)nn1)OCCc1sc(C(F)F)cc12` [Compound 524, (2′S,4R)-2-(difluoromethyl)-2′-methyl-1′-[[1-(2-methylsulfonylethyl)triazol-4-yl]methyl]spiro[6,7-dihydrothieno[3,2-c]pyran-4,4′-piperidine]], less than 100 nM; as for `C[C@H]1C[C@@]2(CCN1Cc1cn(CCS(C)(=O)=O)nn1)OCCc1sc(C(F)(F)F)cc12` [Compound 525, (2′S,4R)-2′-methyl-1′-[[1-(2-methylsulfonylethyl)triazol-4-yl]methyl]-2-(trifluoromethyl)spiro[6,7-dihydrothieno[3,2-c]pyran-4,4′-piperidine]], less than 100 nM. The same measure for `CCc1sc2c(c1Br)[C@]1(CCN(Cc3cn(CCS(C)(=O)=O)nn3)[C@@H](C)C1)OCC2` [Compound 526, (2′S,4R)-3-bromo-2-ethyl-2′-methyl-1′-[[1-(2-methylsulfonylethyl)triazol-4-yl]methyl]spiro[6,7-dihydrothieno[3,2-c]pyran-4,4′-piperidine]]: 100 to 500 nM; for `[2H]c1c(CC)sc2c1[C@]1(CCN(Cc3cn(CCS(C)(=O)=O)nn3)[C@@H](C)C1)OCC2` [Compound 527, (2′S,4R)-3-deuterio-2-ethyl-2′-methyl-1′-[[1-(2-methylsulfonylethyl)triazol-4-yl]methyl]spiro[6,7-dihydrothieno[3,2-c]pyran-4,4′-piperidine]]: less than 100 nM. `C[C@H]1CC2(CCN1Cc1cnn(C)c1)OC(CO)Cc1sc(Cl)cc12` (stereo partly shown) [Compound 530]: the IC50 is less than 100 nM. The same measure for `CC(C)C1Cc2sc(Cl)cc2C2(CCN(Cc3cnn(C)c3)[C@@H](C)C2)O1` (stereo partly shown) [Compound 532]: 100 to 500 nM; for `CCC1Cc2sc(Cl)cc2C2(CCN(Cc3cnn(C)c3)[C@@H](C)C2)O1` (stereo partly shown) [Compound 533]: 500 to 1000 nM; for `CC1CO[C@@]2(CCN(Cc3cn(CCS(C)(=O)=O)nn3)[C@@H](C)C2)c2cc(C(F)(F)F)sc21` (stereo partly drawn) [Compound 534, (2S,4R)-2,7′-dimethyl-1-((1-(2-(methylsulfonyl)ethyl)-1H-1,2,3-triazol-4-yl)methyl)-2′-(trifluoromethyl)-6′,7′-dihydrospiro[piperidine-4,4′-thieno[3,2-c]pyran]]: less than 100 nM.

`CCc1cc2c(s1)C(C)COC21CCN(Cc2cn(CCS(C)(=O)=O)nn2)[C@@H](C)C1` (stereo partly shown) [Compound 535]: the IC50 was less than 100 nM. The same measure for `CC1COC2(CCN(Cc3cn(CCS(C)(=O)=O)nn3)[C@@H](C)C2)c2cc(Cl)sc21` (stereo partly shown) [Compound 536]: less than 100 nM. For the compound `CCc1cc2c(s1)C(C)COC21CCN(Cc2cn(CCS(C)(=O)=O)nn2)[C@@H](C)C1` (stereo partly shown) [Compound 537], the IC50 is less than 100 nM. The same measure for `CC1COC2(CCN(Cc3cn(CCS(C)(=O)=O)nn3)[C@@H](C)C2)c2cc(Cl)sc21` (stereo partly shown) [Compound 540]: less than 100 nM; for `CC1COC2(CCN(Cc3cn(CCS(C)(=O)=O)nn3)[C@@H](C)C2)c2cc(C(F)(F)F)sc21` (stereo partly shown) [Compound 541]: less than 100 nM. As for `C[C@H]1C[C@@]2(CCN1Cc1cnn(C)c1)OCC(O)c1sc(C(F)(F)F)cc12` (stereo partly drawn) [Compound 542, (2′S,4R)-2′-methyl-1′-[(1-methylpyrazol-4-yl)methyl]-2-(trifluoromethyl)spiro[6,7-dihydrothieno[3,2-c]pyran-4,4′-piperidine]-7-ol], the figure is less than 100 nM; as for `CC(O)Cn1cc(CN2CC[C@]3(C[C@@H]2C)OCCc2cc(CC(F)F)sc23)nn1` (stereo partly drawn) [Compound 543, 1-[4-[[(2′S, 7R)-2-(2,2-difluoroethyl)-2′-methyl-spiro[4,5-dihydrothieno[2,3-c]pyran-7,4′-piperidine]-1′-yl]methyl]triazol-1-yl]propan-2-ol], less than 100 nM. As for `C[C@H]1C[C@@]2(CCN1Cc1cn(C(C)(C)CO)nn1)OCCc1cc(CC(F)F)sc12` [Compound 544], the figure is 500 to 1000 nM; as for `C[C@H]1C[C@@]2(CCN1Cc1cn(CCCS(C)(=O)=O)nn1)OCCc1cc(CC(F)F)sc12` [Compound 545], less than 100 nM. As for `C[C@H]1C[C@@]2(CCN1Cc1cn(CC(C)(CO)CO)nn1)OCCc1cc(CC(F)F)sc12` [Compound 546], the IC50 was less than 100 nM.

In the case of `C[C@H]1C[C@@]2(CCN1Cc1cn(C3CCOCC3)nn1)OCCc1cc(CC(F)F)sc12` [Compound 547], the IC50 is less than 100 nM. `C[C@H]1C[C@@]2(CCN1Cc1cn(CC(O)C(C)(C)O)nn1)OCCc1cc(CC(F)F)sc12` (stereo partly shown) [Compound 548]: the IC50 is less than 100 nM.
